Laboratory results: patent publication US20020187484A1, “Molecular break lights probes for detecting nucleotide cleavage” (priority 2000, published 2002)
Marks after values point to notes of the source that are not given here.

Assays:
Assay type in all cases: biochemical
break light A = test: Molecular break light assay: cleavage of break light A by enediynes and Fe^+2-dependent agents
Method: Samples were analyzed with a FluoroMax-2 spectrofluorometer equipped with DataMax for Windows (Instruments S. A., Inc.; Edison, N.J.) and the temperature controlled (30° C., unless otherwise noted) by a Haake Circulator DC10. All samples were filtered prior to analysis and analyzed via a timebase scan (λex=485 nm, λEm=517 nm) in a Suprasil quartz cuvette (10 mm path) fitted with a magnetic stirring bar in a total volume of 2 mL. […] Total cleavage of the labeled oligonucleotide, confirmed by polyacrylamide gel electrophoresis (PAGE), was defined as the maximum fluorescence emission possible under saturated cleaving conditions. Emission units were converted to the amount of labeled oligonucleotide used within a procedure, thereby equating labeled oligonucleotide degradation as a function of the emission of fluorescence.
Enediyne antibiotics calicheamicin and esperamicin at varying concentrations (0.31, 0.78, 1.6, 3.2, 15.9, and 31.7 nM) were incubated in 40 mM Tris-HCl (pH 7.5) with 3.2 nM of the calicheamicin-specific labeled molecular break light oligonucleotide (A). DNA cleavage was initiated with the addition of 1 μL 100 mM dithiothreitol (“DTT”) to produce a final concentration of 50 μM DTT, and the reaction was monitored over 10 minutes via spectrofluorometry.
Pseudo-first order kinetic parameters were utilized to determine the initial velocities at each given enediyne concentration. Specifically, graphical representation of the data was based upon equation 2 where [A]t is the concentration of cleaved oligonucleotide at a given time (t) and [A]0 is the initial concentration of oligonucleotide in the assay. Least squares analysis gave the slope (k), or rate, which was converted to V by the relationship in equation 3. The maximum velocity achieved (Vmax) was then selected from the range of concentrations examined.
ln[A]t=−kt+ln[A]0 [Equation 2]
Bleomycin, an Fe^+2-dependent nucleic acid cleavage agent, is a natural metabolite from Streptomyces verticillus. Blenoxane (a mixture containing approximately 70% bleomycin A2 and 30% bleomycin B2) was dissolved in water & optically standardized (ε291=1.7×10^4M^−1 cm^−1). Bleomycin mediated cleavage was adapted from procedures outlined by Giloni et al. J. Biol. Chem. 256: 8608-8615 (1981). Several different concentrations of bleomycin (200 nM, 100 nM, 50 nM, 25 nM, 12.5 nM, 5 nM, and 2.5 nM) were incubated in 50 mM sodium phosphate, 2.5 mM ascorbate, at pH 7.5 and 37° C. with 3.2 nM of the molecular break light A.
The reaction was initiated by the addition of 65 mM Fe(II) and monitored over 5 minutes. This protocol was repeated with the addition of 5 mM sodium ascorbate to the above conditions. Pseudo-first order kinetic parameters were utilized to determine the initial velocities at each given bleomycin concentration as previously described.
In a first assay, 3.2 nM break light A was incubated in 40 mM Tris HCl and 2.5 mM ascorbate at 37° C. and pH 7.5. Cleavage was initiated by addition of MPE/Fe(II) in a 1.2:1 molar ratio to various concentrations. Final Fe(II) concentrations were 8 μM, 4 μM, 2 μM, 1 μM, 500 nM, 250 nM, and 125 nM.
In a second assay, 32 nM molecular break light A was incubated in 40 mM Tris and 2.5 mM sodium ascorbate at pH 7.5 and 37° C. Cleavage was initiated by addition of MPE/Fe(II) in a 1.2:1 molar ratio to various concentrations. Final Fe(II) concentrations were 50 nM, 125 nM, 250 nM, 500 nM, 1 μM, and 2 μM.
In a third assay, 32 nM break light A (calicheamicin-specific molecular break light oligonucleotide) was incubated in 40 mM Tris and 2.5 mM sodium ascorbate at pH 7.5 and 37° C.

break light B = test: Calicheamicin cleavage of break light B; details: calicheamicin with DTT
[1] = tested on: supercoiled pBlusecript plasmid DNA; test: Calicheamicin-induced cleavage of supercoiled plasmid DNA, protection by CalC (agarose gel)
Method: Prevention of cleavage by calicheamicin—protection by CalC was assessed. […] To test this theory, preliminary assays were performed with supercoiled pBlusecript plasmid DNA (“pBS”) as the template, and dithiothreitol (“DTT”) as the reductive initiator. […] Then 2.5 μL 10 mM DTT stock solution was added to the assay solution, and the assay was incubated an additional 1 hour at 37° C. DNA fragmentation was assessed by electrophoresis on a 1% agarose gel stained with ethidium bromide.
To test this theory, assays were performed with supercoiled pblusecript plasmid DNA (“pBS”) as the template, and dithiothreitol (“DTT”) as the reductive initiator. […] 2.5 μL 10 mM DTT stock solution was added to the assay solution, and the assay was incubated an additional 1 hour at 37° C.
DNA fragmentation was assessed by electrophoresis on a 1% agarose gel stained with ethidium bromide.

With `CCN[C@H]1CO[C@@H](O[C@H]2[C@H](O[C@H]3C#C/C=C/C#C[C@@]4(O)CC(=O)C(NC(=O)OC)=C3/C4=C\CSSSC)O[C@H](C)[C@@H](NO[C@H]3C[C@H](O)[C@H](SC(=O)c4c(C)c(I)c(O[C@@H]5O[C@@H](C)[C@H](O)[C@@H](OC)[C@H]5O)c(OC)c4OC)[C@@H](C)O3)[C@@H]2O)C[C@@H]1OC` [Calicheamicinγ1^l, calicheamicin γ1^I] the “detection of agent by the assay (sensitivity range)” value (break light A; 3.2 nM break light A, conditions described) was “pM range”, the “maximum fluorescence upon cleavage, compared with DNaseI” value (break light A; 3.2 nM break light A, excess DTT) was “identical to that observed with DNaseI” and the “Turnover (Vmax/[Agent])” value (break light A; [DNA]total = 3.2 nM) was 0.007 s⁻¹. For the same molecule, the Vmax (break light A; [DNA]total = 3.2 nM, 37° C.) was 0.011 ± 0.002^d nM sec^−1, the “Comparison to EDTA (fold enhancement over EDTA turnover)” value (break light A; [DNA]total = 3.2 nM, MPE as common agent) was 4.8 × 10^5 fold and the “enhancement of cleavage efficiency over bleomycin” value (break light A; from Table 1) was about 10 fold. The “rate of cleavage of break light B compared with break light A” value (break light B) was “rate identical to that of break light A”, the DNA cleavage ([1]; calicheamicin in the absence of DTT (lane a)) was “no DNA cleavage” and the DNA cleavage ([1]; presence of DTT and calicheamicin (lane c)) was “efficient cleavage”.
